Experiments:
Assay type in all cases: functional
Oncopeltus fasciatus [1] = assay: Morphogenetic activity against second-instar nymphs of Oncopeltus fasciatus assessed as mortality at 3 ug/cm'2
Oncopeltus fasciatus [2] = assay: Morphogenetic activity against fourth-instar nymphs of Oncopeltus fasciatus assessed as occurrence of precocious metamorphosis at 3 ug/cm'2
Oncopeltus fasciatus [3] = assay: Morphogenetic activity against third-instar nymphs of Oncopeltus fasciatus assessed as occurrence of precocious metamorphosis at 3 ug/cm'2
Pieris brassicae = assay: Insecticidal activity against fourth-instar larvae of Pieris brassicae assessed as mortality per insect after 5 days
Oncopeltus fasciatus [4] = assay: Morphogenetic activity against fifth-instar nymphs of Oncopeltus fasciatus assessed as occurrence of precocious metamorphosis at 3 ug/cm'2

| SMILES | Activity (Oncopeltus fasciatus [1]) | Activity (Oncopeltus fasciatus [2]) | Activity (Oncopeltus fasciatus [3]) | LD50 (Pieris brassicae) | Activity (Oncopeltus fasciatus [4]) |
| --- | --- | --- | --- | --- | --- |
| CCOc1c(OC)cc2c(c1C)C=CC(C)(C)O2 | 52.5% | 37.5% | 0% | 71 µg |  |
| COc1c(OC2CCCC2)cc2c(c1C)C=CC(C)(C)O2 | 52.5% |  | 0% | 22.4 µg |  |
| CCC(C)Oc1cc2c(c(C)c1OC)C=CC(C)(C)O2 (configuration not stated) | 47.5% | 0% | 0% | 20 µg | 37.5% |
| C#CCOc1cc2c(c(C)c1OC)C=CC(C)(C)O2 | 30% | 0% | 0% | 29.9 µg | 20% |
| CCCOc1cc2c(c(C)c1OC)C=CC(C)(C)O2 | 15% | 80% | 0% | 32.7 µg | 0% |
| CCOc1cc2c(cc1OC)C=CC(C)(C)O2 | 20% | 5% | 60% | 24.5 µg | 15% |
| COc1cc2c(c(C)c1OC)C=CC(C)(C)O2 | 30% | 45% | 25% | 96.5 µg | 0% |
| CCOc1cc2c(c(C)c1OC)C=CC(C)(C)O2 | 5% | 95% | 0% | 88.3 µg | 0% |
| COc1cc2c(cc1OC)OC(C)(C)C=C2 [PROCOCENE II] | 45% | 27.5% | 22.5% | 39.5 µg | 5% |

Reference: ChEMBL document CHEMBL3044804, “Morphogenetic and Toxic Activity of Seven Novel 2, 2-Dimethylchromene Derivatives on Larvae of Oncopeltus fasciatus and Pieris brassicae” (1991)
